Reference: patent publication US9556226B2, “Peptides with antifungal activity and methods of using the peptides” (THE BOARD OF TRUSTEES OF THE UNIVERSITY OF ARKANSAS, priority 2013, dated 2017)
In brackets after ≈: the same amount, converted by molar mass. Bridge positions count the residues as written; N and C are the ends. Peptide text beside a SMILES is read from it. I, II: the chains in the order shown.

Experiments:
Candida albicans SC5314 [1] = assay type: cell-based; details: for antifungal activity relative to comparator peptides (in words) / LD50 in killing assays: Candida albicans SC5314; for percent of C. albicans killed at 5 μM concentration: SC5314, 5
Protocol: Killing assays. The fungicidal activity of the peptides toward Candida albicans was examined by microdilution plate assay as described previously (13). Briefly, from a fresh overnight cultured plate, a single colony was inoculated and diluted in 1 ml of 10 mM sodium phosphate buffer at pH 7.4. Once cell counts had been confirmed by using a hemocytometer, the cells diluted within the same buffer at 1.8×10^5 cells/mil. Cell suspensions of 20 μl were mixed with 20 μl of peptide, which were dissolved in 10 mM sodium phosphate buffer at pH 7.4, and then incubated for 2 hours at 37° C. with shaking at speeds of 550 rpm. The reactions were stopped by the addition of 360 μl yeast nitrogen base (YNB) and then 40 μl of cell suspension was spread onto plates and incubated for 24 hours at 37° C. Sabouraud dextrose agar plates were used for C. albicans killing assay. The number of colony-forming units (CFUs) was counted and each assay was repeated in triplicate. Loss of viability was calculated as [1-(colonies from suspension with peptide/colonies from suspension with no peptide)]×100. For the respiratory activity experiments, Candida albicans was grown in the presence of sodium azide or antimycin A (Sigma Aldrich) before the killing assay was performed.

CD1 mice [2] = assay: Immunogenicity in mice, serum dot blot for antibodies against the peptide; assay type: in vivo
Protocol: Small peptides have the potential to induce an immune response when used for therapeutic purposes. To examine this possibility, mice were injected once per month for four months with 10 mg/kg of the KM12 peptide either by intravenous, intramuscular, or intraperitoneal route. After the fifth month, the mice were euthanized and the serum collected and tested by dot blot analysis for antibodies directed against the KM12 peptide. For each route of injection, five CD1 mice were used. […] It is plausible that the smaller size of those peptides may not elicit an immune response, yet be effect as antifungals. Such studies are currently underway on KM23 and KM29.
(§1) Animal Studies: For the animal studies, CD-1 mice of 8-25 grams were injected with the antifungal peptides dissolved in either phosphate-buffered saline or 5% glucose. Peptide concentrations used for the injection of mice were chosen using a standard up-down protocol starting at 8 mg/kg. Peptides were injected into mice intravenously, intramuscularly, or intraperitoneally as indicated. The mice were closely monitored lbr signs of distress after injection. After two hours of continuous monitoring, the mice were evaluated daily for two weeks and necropsies performed after two weeks. For evaluating the immunogenicity of the peptides, mice were injected with peptides at a concentration of 10 mg/kg in 5% glucose. The routes of injection were intravenous, intramuscular, or intraperitoneal. Five mice were injected with the peptide per route of injection. The mice were injected with the same dose of peptide once per month for four months. The mice were monitored for signs of distress after each injection. At the end of the fifth month, the mice were euthanized by an overdose of anesthesia and the serum was collected from each mouse individually as assay for activity against the peptide using dot blots.

CD1 mice [3] = assay: Acute toxicity testing in CD1 mice (up-down protocol); assay type: in vivo; details: for signs observed on tested animals: IV
Protocol: To evaluate acute toxicity in animals, CD1 outbred mice were injected via tail vein with either KM12 or KM14 using a standard up-down concentration protocol and observed for any symptoms consistent with the toxicity of the peptides (Table 4). Mice were initially injected with KM12 or KM14 at a concentration of 8 mg/kg. […] Thus the KM12 peptide was deemed safe for animals at concentrations up to 10 mg/kg and the use of 5% glucose versus phosphate-buffered saline was deemed safer for administration to the animals. We will continue to evaluate acute toxicity with other KM peptides (i.e. KM23 and KM29) that show excellent promise as antifungal compounds. In addition, we plan to evaluate these peptides for treatment of superficial mucosal infections with Candida species.
as §1

[4] = protein binding evaluation using bovine calf serum (disulfide bond stability); assay type: in vitro ADME
Text: To alleviate that difficulty, two additional peptides were synthesized, KM23 and KM29. The KM23 peptide was identical in sequence to KM12 except the cysteine residues were removed resulting in a peptide with the sequence Y -K-R-K-F-F-K-R-K-Y (SEQ ID NO: 3). Since there were two phenylalanines at the center of this symmetrical peptide another peptide, designated KM29 was synthesized to yield the symmetric peptide Y-K-R-K-F-K-R-K-Y (SEQ ID NO: 4) with one phenylalanine at the center.

Candida krusel ATCC6258 = assay: Minimum inhibitory concentration (MIC) assay with resazurin; assay type: cell-based; details: 0.125X RPMI medium, range of three independent experiments
Text: (§2) Minimum Inhibitory Concentration Assays: MIC assays were used to evaluate the minimum concentration of each antifungal peptide that would lead to 100% inhibition of growth. In the MIC assay, the colorimetric indicator, resazurin, is used to evaluate cell growth. Resazurin turns pink after reduction by living cells, indicating active cell growth. The unchanged blue color indicated no active cell growth. Colorimetric MIC end-points are interpreted as the lowest drug concentration that remained blue. The lowest dilution that changed from blue to slightly purple is indicative of significant cell growth inhibition; whereas a pink color indicates no growth inhibition. Each individual Candida species was assayed a minimum of three times and the results represent the range of MIC values obtained. The MIC assay was performed as described by the National Committee for Clinical Laboratory Standards M27-A, except we include resazurin as an indicator dye rather than visual inspection and the […] tissue culture medium was used at 0.125× concentration for our assays.

[5] = test system: Candida tropicalis ATCC750; assay: as above; assay type: cell-based; details: 0.125X RPMI medium, range of three independent experiments
Text: as §2

[6] = test system: Candida lucitaniae ATCC200951; assay: as above; assay type: cell-based; details: 0.125X RPMI medium, range of three independent experiments
Text: as §2

[7] = test system: Candida glabrata ATCC90030; assay: as above; assay type: cell-based; details: 0.125X RPMI medium, range of three independent experiments
Text: as §2

Candida albicans SC5314 [8] = assay: as above; assay type: cell-based; details: 0.125X RPMI medium, range of three independent experiments
Text: as §2

Candida kefyr ATCC4135 = assay: as above; assay type: cell-based; details: 0.125X RPMI medium, range of three independent experiments
Text: as §2

CC(=O)N[C@@H](CS)C(=O)N[C@@H](Cc1ccccc1)C(=O)N[C@@H](CCCCN)C(=O)N[C@@H](CCCNC(=N)N)C(=O)N[C@@H](CCCCN)C(=O)N[C@@H](Cc1ccc(O)cc1)C(N)=O [KM11, C-F-K-R-K-Y] (Ac-CFKRKY-NH2)
antifungal activity relative to comparator peptides (in words) (Candida albicans SC5314 [1]): did not alter its antifungal activity | Percent killing activity at 25 μM concentration (Candida albicans SC5314 [1]; SC5314, 25): 95%

CC(=O)N[C@@H](CSSC[C@H](NC(C)=O)C(=O)N[C@@H](Cc1ccccc1)C(=O)N[C@@H](CCCCN)C(=O)N[C@@H](CCCNC(=N)N)C(=O)N[C@@H](CCCCN)C(=O)N[C@@H](Cc1ccc(O)cc1)C(N)=O)C(=O)N[C@@H](Cc1ccccc1)C(=O)N[C@@H](CCCCN)C(=O)N[C@@H](CCCNC(=N)N)C(=O)N[C@@H](CCCCN)C(=O)N[C@@H](Cc1ccc(O)cc1)C(N)=O [KM12, Y-K-R-K-F-C-----C-F-K-R-K-Y]
mice displaying a weak immune response (antibodies against the peptide) (CD1 mice [2]; 10 mg/kg once per month for four months, intramuscular injection): 1/5 | mice displaying an immune response (antibodies against the peptide) (CD1 mice [2]; 10 mg/kg once per month for four months, intraperitoneal injection): 0/5 | mice showing a moderate immune response (antibodies against the peptide) (CD1 mice [2]; 10 mg/kg once per month for four months, intravenous injection): 1/5 | immunogenicity (overall, in words) (CD1 mice [2]; CD1 mice, 10 mg/kg monthly, IV, IM or IP): weakly immunogenic | signs observed on tested animals (CD1 mice [3]; 8 mg/kg, in PBS, CD1 mice): no toxicity and None | signs observed on tested animals (CD1 mice [3]; 10 mg/kg, IM, IP, in 5% glucose, CD1 mice (n = 15)): no major toxicity and None | signs observed on tested animals (CD1 mice [3]; 10 mg/kg, in PBS, CD1 mice (n = 5)): None | signs observed on tested animals (CD1 mice [3]; 16 mg/kg, in 5% glucose, CD1 mice (n = 2)): Convulsion, no death | dosage deemed safe / well-tolerated in mice (CD1 mice [3]; intravenous, intramuscular or intraperitoneal route): up to 10 mg/kg | stability of the disulfide bond in bovine calf serum [4]: readily reduced

CC(=O)N[C@@H](CSSC[C@H](NC(C)=O)C(=O)N[C@@H](Cc1c[nH]c2ccccc12)C(=O)N[C@@H](CCCCN)C(=O)N[C@@H](CCCNC(=N)N)C(=O)N[C@@H](CCCCN)C(=O)N[C@@H](Cc1c[nH]c2ccccc12)C(N)=O)C(=O)N[C@@H](Cc1c[nH]c2ccccc12)C(=O)N[C@@H](CCCCN)C(=O)N[C@@H](CCCNC(=N)N)C(=O)N[C@@H](CCCCN)C(=O)N[C@@H](Cc1c[nH]c2ccccc12)C(N)=O [KM14, W-K-R-K-W-C-----C-W-K-R-K-W]
signs observed on tested animals (CD1 mice [3]; 8 mg/kg, in PBS, CD1 mice): immediate death

CC(=O)N[C@@H](Cc1ccccc1)C(=O)N[C@@H](CCCCN)C(=O)N[C@@H](CSSC[C@H](NC(=O)[C@H](CCCCN)NC(=O)[C@H](Cc1ccccc1)NC(C)=O)C(=O)N[C@@H](CCCNC(=N)N)C(=O)N[C@@H](CCCCN)C(=O)N[C@@H](Cc1ccc(O)cc1)C(N)=O)C(=O)N[C@@H](CCCNC(=N)N)C(=O)N[C@@H](CCCCN)C(=O)N[C@@H](Cc1ccc(O)cc1)C(N)=O [KM16, F-K-C-R-K-Y] (I: Ac-FKCRKY-NH2 / II: Ac-FKCRKY-NH2; disulfide I:3-II:3)
antifungal activity relative to comparator peptides (in words) (Candida albicans SC5314 [1]): very promising antifungal activity compatible with that of KM12 and KM14 | percent of C. albicans killed at 5 μM concentration (Candida albicans SC5314 [1]): > 90%

CC(=O)N[C@H]1CSSC[C@@H](C(N)=O)NC(=O)[C@H](Cc2ccc(O)cc2)NC(=O)[C@H](CCCCN)NC(=O)[C@H](CCCNC(=N)N)NC(=O)[C@H](CCCCN)NC(=O)[C@H](Cc2ccccc2)NC1=O [KM17, C-F-K-R-K-Y-C] (Ac-CFKRKYC-NH2; disulfide 1-7)
antifungal activity relative to comparator peptides (in words) (Candida albicans SC5314 [1]): very promising antifungal activity compatible with that of KM12 and KM14 | percent of C. albicans killed at 5 μM concentration (Candida albicans SC5314 [1]): > 90%

CC(=O)N[C@@H](Cc1ccc(O)cc1)C(=O)N[C@@H](CCCCN)C(=O)N[C@@H](CCCNC(=N)N)C(=O)N[C@@H](CCCCN)C(=O)N[C@@H](Cc1ccccc1)C(=O)N[C@@H](Cc1ccccc1)C(=O)N[C@@H](CCCCN)C(=O)N[C@@H](CCCNC(=N)N)C(=O)N[C@@H](CCCCN)C(=O)N[C@@H](Cc1ccc(O)cc1)C(N)=O [KM23, Y-K-R-K-F-F-K-R-K-Y] (Ac-YKRKFFKRKY-NH2)
MIC (Candida krusel ATCC6258): 4.7 mg/L (≈ 3.12 µM) | MIC [5]: 2.4 to 4.7 mg/L | MIC [6]: 2.4 mg/L (≈ 1.59 µM) | MIC [7]: 75.4 mg/L (≈ 50.1 µM) | MIC (Candida albicans SC5314 [8]): 4.7 mg/L (≈ 3.12 µM) | MIC (Candida kefyr ATCC4135): 1.2 to 4.7 mg/L | LD50 in killing assays (Candida albicans SC5314 [1]): 62.5 nM

CC(=O)N[C@@H](Cc1ccc(O)cc1)C(=O)N[C@@H](CCCCN)C(=O)N[C@@H](CCCNC(=N)N)C(=O)N[C@@H](CCCCN)C(=O)N[C@@H](Cc1ccccc1)C(=O)N[C@@H](CCCCN)C(=O)N[C@@H](CCCNC(=N)N)C(=O)N[C@@H](CCCCN)C(=O)N[C@@H](Cc1ccc(O)cc1)C(N)=O [KM29, Y-K-R-K-F-K-R-K-Y] (Ac-YKRKFKRKY-NH2)
MIC (Candida krusel ATCC6258): 4.2 mg/L (≈ 3.09 µM) | MIC [5]: 2.1 to 4.2 mg/L | MIC [6]: 2.1 to 4.2 mg/L | MIC [7]: 67.5 mg/L (≈ 49.7 µM) | MIC (Candida albicans SC5314 [8]): 4.2 to 8.4 mg/L | MIC (Candida kefyr ATCC4135): 2.1 to 4.3 mg/L | LD50 in killing assays (Candida albicans SC5314 [1]): 62.5 nM
